Test: xn = mol fraction of the nth substance listed
Settings: 101 kPa, Liquid, Vibrating tube method

Cn1ccnc1 [1-methylimidazole] + O
mass density [kg/m3]
Settings | 288.15 K | 293.15 K | 298.15 K | 303.15 K | 308.15 K | 313.15 K | 318.15 K | 323.15 K
x1 = 0.0443 | 1010.2 | 1008.3 | 1006.2 | 1003.9 | 1001.6 | 999.2 | 996.6 | 994.2
x1 = 0.1036 | 1022.1 | 1019.3 | 1016.5 | 1013.3 | 1010.2 | 1007.1 | 1003.9 | 1000.9
x1 = 0.2167 | 1037.4 | 1033.7 | 1030.1 | 1026 | 1022.1 | 1018.2 | 1014.3 | 1010.6
x1 = 0.3003 | 1044.4 | 1040.3 | 1036.3 | 1031.9 | 1027.8 | 1023.6 | 1019.3 | 1015.4
x1 = 0.4024 | 1048.9 | 1044.6 | 1040.5 | 1035.9 | 1031.5 | 1027.2 | 1022.7 | 1018.6
x1 = 0.4982 | 1050.2 | 1045.8 | 1041.6 | 1036.8 | 1032.4 | 1028 | 1023.5 | 1019.3
x1 = 0.5902 | 1049.3 | 1044.7 | 1040.5 | 1035.7 | 1031.3 | 1026.9 | 1022.5 | 1018.4
x1 = 0.7159 | 1046.7 | 1042.2 | 1038 | 1033.2 | 1028.8 | 1024.4 | 1020 | 1015.9
x1 = 0.7795 | 1044.7 | 1040.2 | 1036 | 1031.2 | 1026.8 | 1022.4 | 1018 | 1013.9
x1 = 0.8907 | 1041.8 | 1037.4 | 1033.3 | 1028.5 | 1024.1 | 1019.7 | 1015.3 | 1011.2
x1 = 1 | 1039.4 | 1035 | 1030.9 | 1026.1 | 1021.7 | 1017.3 | 1012.9 | 1008.8

O [water] + Cn1ccnc1
Settings | mass density [kg/m3]
318.15 K, x2 = 0 | 990.1

Source: the NIST ThermoML archive (doi:10.1016/j.jct.2012.06.015)
